Reference: ChEMBL document CHEMBL1135903 (J Med Chem, 2002)
Values after ≈ are worked out from the molar mass of the structure shown.

Columns and labels:
[1] = biological target: Carbonic anhydrase 1 (Homo sapiens, UniProt P00915)
Description: Inhibitory activity against Human carbonic anhydrase I

[2] = Solubility in Chloroform buffer at pH 7.4; format: physicochemical
[3] = octanol/water
[4] = not given; remark: listed apart in the source
[5] = biological target: T1, Carbonic anhydrase 4 (Bos taurus, UniProt Q95323)
T1 sequence (Q95323 whole entry): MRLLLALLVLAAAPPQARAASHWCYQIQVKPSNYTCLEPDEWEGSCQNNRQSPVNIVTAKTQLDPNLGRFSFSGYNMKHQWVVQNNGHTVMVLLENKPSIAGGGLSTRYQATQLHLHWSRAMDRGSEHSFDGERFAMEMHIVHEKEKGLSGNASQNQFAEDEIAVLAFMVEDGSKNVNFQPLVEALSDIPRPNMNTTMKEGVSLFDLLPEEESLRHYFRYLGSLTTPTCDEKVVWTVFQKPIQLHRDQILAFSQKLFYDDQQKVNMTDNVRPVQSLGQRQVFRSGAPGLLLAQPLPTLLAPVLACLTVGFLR
Description: Inhibitory activity against bovine carbonic anhydrase IV

[6] = species on record: Oryctolagus cuniculus
[7] = species on record: Oryctolagus cuniculus; remark: listed apart in the source
[8] = species on record: Oryctolagus cuniculus; remark: listed apart in the source
[9] = species on record: Oryctolagus cuniculus; remark: listed apart in the source
[10] = Solubility in buffer at pH 7.4; format: physicochemical
[11] = not given; remark: listed apart in the source
[12] = not given; remark: listed apart in the source
[13] = physchem; conditions: buffer, pH 5.5
Description: Solubility in buffer at pH 5.5

[14] = Partition coefficient in Chloroform-buffer at pH 7.4; format: physicochemical
[15] = Solubility in chloroform buffer at pH 7.4; format: physicochemical

Sequence of Carbonic anhydrase 1 (P00915 whole entry): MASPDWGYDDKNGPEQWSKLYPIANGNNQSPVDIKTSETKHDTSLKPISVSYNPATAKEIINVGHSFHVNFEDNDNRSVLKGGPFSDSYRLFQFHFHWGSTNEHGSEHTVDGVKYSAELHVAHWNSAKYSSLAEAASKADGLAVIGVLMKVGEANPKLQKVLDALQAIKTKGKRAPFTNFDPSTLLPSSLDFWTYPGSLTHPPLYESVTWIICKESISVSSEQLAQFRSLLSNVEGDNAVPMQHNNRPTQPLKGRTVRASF

| Ki [1] | logD [3] | Kin x10e3 | Kin x10e3 [4] | Ki [5] | Molecule | also measured |
| --- | --- | --- | --- | --- | --- | --- |
| 215 nM | 1.75 | 9.5 hr-1 | 4.8 hr-1 | 26 nM | Cn1nc(S(N)(=O)=O)s/c1=N/C(=O)CN(CCN(CC(=O)O)CC(=O)O)CC(=O)O | solubility [2]: 65 mM (≈ 30.5 mg/mL) |
| – | 0.983 | 6.9 hr-1 | 3.8 hr-1 | 180 nM | NS(=O)(=O)c1ccc(NC(=O)CN(CCN(CCN(CC(=O)O)CC(=O)O)CC(=O)O)CC(=O)O)cc1 | solubility [2]: 48 mM (≈ 26.3 mg/mL) |
| – | 1.375 | 8.1 hr-1 | 4.3 hr-1 | 28 nM | NS(=O)(=O)c1nnc(NC(=O)CN(CCN(CCN(CC(=O)O)CC(=O)O)CC(=O)O)CC(=O)O)s1 | solubility [2]: 59 mM (≈ 32.8 mg/mL) |
| 155 nM | 1.534 | – | – | 16 nM | NS(=O)(=O)c1ccc(NC(=O)CN(CCOCCOCCN(CC(=O)O)CC(=O)Nc2ccc(S(N)(=O)=O)cc2F)CC(=O)O)c(F)c1 | Kin x10e3 [11]: 8.3 hr-1; Kin x10e3 [12]: 4.5 hr-1; solubility [13]: 47 mM (≈ 34.1 mg/mL) |
| 54 nM | 1.446 | – | – | 21 nM | NS(=O)(=O)c1nnc(NC(=O)CN(CCOCCOCCN(CC(=O)O)CC(=O)O)CC(=O)O)s1 | Kin x10e3 [11]: 8.4 hr-1; Kin x10e3 [12]: 4.6 hr-1; solubility [13]: 52 mM (≈ 28.2 mg/mL) |
| 78 nM | 1.747 | – | – | 32 nM | NS(=O)(=O)c1ccc(NC(=O)CN(CCOCCOCCN(CC(=O)O)CC(=O)O)CC(=O)O)c(Br)c1 | Kin x10e3 [11]: 6.5 hr-1; Kin x10e3 [12]: 3.3 hr-1; solubility [13]: 50 mM (≈ 30.7 mg/mL) |
| 44 nM | – | – | – | 10 nM | NS(=O)(=O)c1nc2ccc(OCCOC(=O)CN(CC(=O)O)CC(=O)O)cc2s1 | logD [14]: 1.925; solubility [10]: 37 mM (≈ 16.6 mg/mL) |
| – | 1.456 | 4.5 hr-1 | 3.6 hr-1 | 156 nM | NS(=O)(=O)c1ccc(NC(=O)CN(CCN(CCN(CC(=O)O)CC(=O)Nc2ccc(S(N)(=O)=O)cc2)CC(=O)O)CC(=O)O)cc1 | solubility [2]: 35 mM (≈ 24.6 mg/mL) |
| 300 nM | – | – | – | 76 nM | NS(=O)(=O)c1ccc(NC(=O)CN(CCOCCOCCN(CC(=O)O)CC(=O)Nc2ccc(S(N)(=O)=O)cc2)CC(=O)O)cc1 | – |
| 650 nM | – | – | – | 75 nM | NS(=O)(=O)c1ccc(CCNC(=O)CN(CCN(CC(=O)O)CC(=O)O)CC(=O)O)cc1 | – |
| 240 nM | – | – | – | 35 nM | NS(=O)(=O)c1ccc(NC(=O)CN(CCN(CC(=O)O)CC(=O)Nc2ccc(S(N)(=O)=O)cc2F)CC(=O)O)c(F)c1 | – |

The remaining lines, values behind:

| Molecule | Ki [1] | logD [3] | Kin x10e3 | Kin x10e3 [4] | Ki [5] | also measured |
| --- | --- | --- | --- | --- | --- | --- |
| NS(=O)(=O)c1nnc(NC(=O)CCNC(=O)CN(CCN(CC(=O)O)c2ccccc2O)c2ccccc2O)s1 | 210 nM | 2.354 | 10.7 hr-1 | 5.1 hr-1 | 35 nM | solubility [2]: 44 mM (≈ 26.1 mg/mL) |
| NS(=O)(=O)c1cc(S(N)(=O)=O)c(NC(=O)CN(CCN(CC(=O)O)CC(=O)Nc2c(S(N)(=O)=O)cc(S(N)(=O)=O)c(Cl)c2Cl)CC(=O)O)c(Cl)c1Cl | 65 nM | 1.764 | 7 hr-1 | 3.6 hr-1 | 51 nM | solubility [2]: 32 mM (≈ 28.7 mg/mL) |
| (Carboxymethyl-{2-[2-(2-{carboxymethyl-[(5-sulfamoyl-[1,3,4]thiadiazol-2-ylcarbamoyl)-methyl]-amino}-ethoxy)-ethoxy]-ethyl}-amino)-acetic acid; compound with Cu complex | – | – | – | – | – | Delta IOP [6]: 9.6 mmHg; Delta IOP [7]: 4.7 mmHg; Delta IOP [8]: 0 mmHg; Delta IOP [9]: 13.5 mmHg |
| NS(=O)(=O)c1nnc(NC(=O)CCNC(=O)CN(CCN(CC(=O)O)CC(=O)NCCC(=O)Nc2nnc(S(N)(=O)=O)s2)CC(=O)O)s1 | 125 nM | 1.15 | 5.9 hr-1 | 3 hr-1 | 10 nM | solubility [10]: 46 mM (≈ 34.9 mg/mL) |
| Cn1nc(S(N)(=O)=O)s/c1=N/C(=O)CN(CCN(CC(=O)O)CC(=O)/N=c1/sc(S(N)(=O)=O)nn1C)CC(=O)O | – | 1.333 | 5.5 hr-1 | 3.1 hr-1 | 17 nM | solubility [2]: 41 mM (≈ 26.4 mg/mL) |
| NS(=O)(=O)C1N=NC(NC(=O)CN(CCN(CCN(CC(=O)O)CC(=O)NC2N=NC(S(N)(=O)=O)S2)CC(=O)O)CC(=O)O)S1 (centres undefined) | – | 1.961 | – | – | 7 nM | Kin x10e3 [11]: 6.2 hr-1; Kin x10e3 [12]: 3.9 hr-1; solubility [13]: 54 mM (≈ 39 mg/mL) |
| NS(=O)(=O)c1nc2ccc(OC(=O)CNCCNCC(=O)O)cc2s1 | 45 nM | 1.166 | – | – | 11 nM | Kin x10e3 [11]: 8.4 hr-1; Kin x10e3 [12]: 4.7 hr-1; solubility [13]: 44 mM (≈ 17.1 mg/mL) |
| NS(=O)(=O)c1nnc(NC(=O)CCNC(=O)CNCC(=O)O)s1 | 280 nM | – | 4.6 hr-1 | 2.5 hr-1 | 48 nM | solubility [15]: 62 mM (≈ 22.7 mg/mL); logD [14]: 1.23 |
| NS(=O)(=O)c1cc(S(N)(=O)=O)c(NC(=O)CNCCNCC(=O)O)c(Cl)c1Cl | 290 nM | – | – | – | 110 nM | – |
| NS(=O)(=O)c1ccc(COC(=O)CN(CCN(CC(=O)O)c2ccccc2O)c2ccccc2O)cc1 | 945 nM | – | – | – | 320 nM | – |
| Cn1nc(S(N)(=O)=O)s/c1=N/C(=O)CN(CCN(CC(=O)O)c1ccccc1O)c1ccccc1O | 250 nM | – | – | – | 57 nM | – |
| NS(=O)(=O)c1nc2ccc(NC(=O)CNCC(=O)O)cc2s1 | 65 nM | – | – | – | 14 nM | – |
| Cn1nc(S(N)(=O)=O)s/c1=N/C(=O)CNCCNCC(=O)O | 275 nM | – | – | – | 76 nM | – |
| NS(=O)(=O)c1nc2ccc(OCCOC(=O)CNCC(=O)O)cc2s1 | 46 nM | – | – | – | 12 nM | – |
| NS(=O)(=O)c1nnc(NC(=O)CCNC(=O)CNCCNCC(=O)O)s1 | 240 nM | – | – | – | 39 nM | – |
| NS(=O)(=O)c1ccc(NNC(=O)CN(CCN(CC(=O)O)c2ccccc2O)c2ccccc2O)cc1 | 21000 nM | – | – | – | 840 nM | – |
